Test results published in US20180086749A1, “INHIBITORS OF VIRUSES” (priority 2015, published 2018).
Values joined by “and” are separate entries in the source; they are usually repeats but may differ in a detail not shown here. Equal values may be shown once. Read-outs that look alike come from different tables or passages of the source.

What was measured:
CHIKV (S27 strain) = CHIKV (S27 strain) CPE assay; type: cell-based, Chikungunya virus
VEEV (TC83 strain) = assay: microbe, parasite or virus in culture; type: cell-based, Venezuelan equine encephalitis virus
CHIKV S27 = type: cell-based, Chikungunya virus
VEEV TC-83 = type: cell-based, Venezuelan equine encephalitis virus
[1] = system: VEEV TrD (Trinidad donkey); type: cell-based, Venezuelan equine encephalitis virus
RSV Long = type: cell-based, Respiratory syncytial virus
Influenza virus A (H1N1) = type: cell-based
LCMV-ARM = type: cell-based, Lymphocytic Choriomeningitis Virus
HSV-2 = type: cell-based, Herpes simplex virus type-2
JEV [2] = type: cell-based, Japanese Encephalitis virus
YFV 17D = type: cell-based, Yellow Fever virus
WNV/NY99 [3] = type: cell-based, West Nile virus
VEEV TrD = assay: microbe, parasite or virus in culture; type: cell-based; conditions: Venezuelan equine encephalitis virus
VEEV V3526-luc = assay: microbe, parasite or virus in culture; type: cell-based, Venezuelan equine encephalitis virus; conditions: for EC50: Venezuelan equine encephalitis virus
pVSV-luc = assay: microbe, parasite or virus in culture; type: cell-based, Vesicular stomatitis virus; conditions: for EC50: Vesicular stomatitis virus
WEEV = assay: cells; type: cell-based, West equine encephalitis virus California
JEV [4] = assay: Dose-response EC50, JEV; type: cell-based; conditions: Japanese encephalitis virus
WNV/NY99 [5] = assay: Dose-response EC50, WNV; type: cell-based; conditions: West Nile virus
ZIKV/MR766 = assay: Dose-response EC50, ZIKV/MR766; type: cell-based; conditions: Zika virus, Vero 76, Vero76, MOI 0.05
[6] = system: cellular metabolites of HEK 293T cells; assay: Metabolomics analysis of cellular metabolites; type: cell-based, human
[7] = system: innate immune response genes in HEK 293T cells; type: cell-based, human
[8] = system: IFN α/β in HEK 293T culture supernatant; type: cell-based, human; conditions: 18 hours
[9] = system: HEK-Blue IFN-α/β reporter cells; assay: HEK-Blue IFN-α/β cell reporter assay (SEAP); type: cell-based, human
alphaviruses = type: cell-based; conditions: 5 μM
in vitro = conditions: African green monkey, CC50 μM (Vero76)
[10] = ML416-treated / DMSO-treated, 18 hours
[11] = ML416 / DMSO, metabolite not confirmed by standard

CN(C(=O)Cc1sccc1F)c1nc2c(s1)CCCC2 [ML416, 2-(3-fluorothiophen-2-yl)-N-methyl-N-(4,5,6,7-tetrahydro-1,3-benzothiazol-2-yl)acetamide]
EC50 (CHIKV (S27 strain); Chikungunya virus): 290 nM
inhibition of CHIKV-induced cytopathic effect (CHIKV (S27 strain); in words): in the nanomolar range
EC50 (VEEV (TC83 strain); Venezuelan equine encephalitis virus): 350 nM
EC50 (VEEV (TC83 strain); read-out: VEEV (TC83 strain) CPE Assay Potency mean EC50): 1000 nM and 900 nM
reduction of CHIKV viral titer in vitro (CHIKV S27): 4 log
Log titer inhibition at 5 μM (CHIKV S27; 5 μM): −4.024 Log
Log titer inhibition at 5 μM (VEEV TC-83): −2.536 ± 0.018 Log
Log titer inhibition at 5 μM [1]: −4.768 Log
Log titer inhibition at 5 μM (RSV Long): −2.27 ± 0.1 Log
Log titer reduction (RSV Long; 5 μM): ~2 Log
Log titer inhibition at 5 μM (Influenza virus A (H1N1)): −3.03 Log
Log reduction in progeny virus titers (Influenza virus A (H1N1); 5 μM): greater than 3 Log
Log titer inhibition at 5 μM (LCMV-ARM): −3.466 Log
Log reduction in progeny virus titers (LCMV-ARM; 5 μM): greater than 3 Log
Log titer inhibition at 5 μM (HSV-2): 0.01 ± 0.43 Log
Log titer inhibition at 5 μM (JEV [2]): −1.3 ± −0.43 Log
Log reduction (JEV [2]; 5 μM): ~1.3 Log
Log titer inhibition at 5 μM (YFV 17D): −2.32 Log
Log titer reduction (YFV 17D; 5 μM): ~2 Log
Log titer inhibition at 5 μM (WNV/NY99 [3]): −2.05 ± −0.09 Log
Log titer reduction (WNV/NY99 [3]; 5 μM): ~2 Log
EC50 (VEEV TrD): 460 nM
antiviral effect (VEEV V3526-luc): moderate effect
effect of DHO addition on antiviral activity (VEEV V3526-luc): did not affect the antiviral activity
EC50 (VEEV V3526-luc): 170 nM
EC50 (VEEV V3526-luc; BHK, read-out: EC50 V3526-luc): 1120 nM
EC50 (VEEV V3526-luc; HEK-293T, read-out: EC50 V3526-luc): 150 nM
EC50 (VEEV V3526-luc; N2a, read-out: EC50 V3526-luc): > 50000 nM
EC50 (VEEV V3526-luc; NIH3T3, read-out: EC50 V3526-luc): > 50000 nM
EC50 (VEEV V3526-luc; Vero 76, read-out: EC50 V3526-luc): 170 nM
EC50 (VEEV V3526-luc; in Mus musculus): > 50000 nM
EC50 (VEEV V3526-luc; read-out: EC50 V3526-luc): 490 nM
EC50 (VEEV V3526-luc; read-out: EC50 values range): 150 to 680 nM
antiviral effect (pVSV-luc): moderate effect
EC50 (pVSV-luc): 190 nM
EC50 (pVSV-luc; BHK, read-out: EC50 pVSV-Gp): 8260 nM
EC50 (pVSV-luc; HEK-293T, read-out: EC50 pVSV-Gp): 170 nM
EC50 (pVSV-luc; N2a, read-out: EC50 pVSV-Gp): > 50000 nM
EC50 (pVSV-luc; NIH3T3, read-out: EC50 pVSV-Gp): > 50000 nM
EC50 (pVSV-luc; in Mus musculus): > 50000 nM
EC50 (pVSV-luc; read-out: EC50 pVSV-Gp): 3820 nM
EC50 (pVSV-luc; read-out: EC50 values range): 150 to 680 nM
EC50 (WEEV): 960 nM
EC50 (JEV [4]): 1900 nM
EC50 (JEV [4]; Vero 76, JEV, Vero76, MOI 0.05, Table 3, read-out: EC50): 1900 nM
EC50 (WNV/NY99 [5]; Table 2): 2400 nM
EC50 (WNV/NY99 [5]; Vero 76, Vero76, MOI 0.01, Table 3): 2400 nM
EC50 (ZIKV/MR766): 1100 nM
Fold Change: 3-((carboxymethyl)(methyl)amino)-3-oxopropanoic acid [6, 10]: 0.46 fold
Fold Change: Citirc acid [6, 10]: 0.62 fold
Fold Change: D-(−)-Lactic acid [6, 10]: 0.76 fold
Fold Change: DL-Ornithine [6, 10]: 0.53 fold
Fold Change: DL-Phenylalanine [6, 10]: 0.71 fold
Fold Change: Fumaric Acid [6, 10]: 11 fold and 11.00 fold
Fold Change: Glycine [6, 10]: 2.80 fold
Fold Change: L-Asparagine [6, 10]: 0.41 fold
Fold Change: L-Aspartic acid [6, 10]: 2.07 fold
Fold Change: L-Glutamic acid [6, 10]: 0.09 fold
Fold Change: L-Isoleucine [6, 10]: 0.45 fold
Fold Change: L-Lysine [6, 10]: 2.76 fold
Fold Change: L-Proline [6, 10]: 0.28 fold
Fold Change: L-Threonine [6, 10]: 0.54 fold
Fold Change: L-Tyrosine [6, 10]: 0.86 fold
Fold Change: Lauric acid; Dodecanoic acid [6, 10]: 0.73 fold
Fold Change: Oxalic acid [6, 10]: 0.66 fold
Fold Change: Phenylalanine [6, 10]: 0.40 fold
Fold Change: Pyruvic acid [6, 10]: 1.60 fold
Fold Change: Tryptophan [6, 10]: 1.23 fold
presence of free uridine ([6]; ML416-treated groups): not detected
Fold Change: 1-phenylpropan-2-amine; Amphetamine; Fenopromin* [6, 11]: 0.80 fold
Fold Change: 2-(Dimethylamino)ethyl neopentyl carbonate* [6, 11]: 1.49 fold
Fold Change: 3,3-diethoxy-2-hydroxypropyl dihydrogen phosphate* [6, 11]: 0.58 fold
Fold Change: 3-Glycerophosphate* [6, 11]: 1.71 fold
Fold Change: 3-hydroxy-2-methylpropanoic acid; 3-Hydroxyisobutyric acid* [6, 11]: 0.70 fold
Fold Change: Adenine* [6, 11]: 1.37 fold
Fold Change: Dihydromuconic acid; trans-3-Hexenedioic acid* [6, 11]: 0.23 fold
Fold Change: Ethylcholine mustard* [6, 11]: 0.49 fold
Fold Change: L-Norvaline* [6, 11]: 0.52 fold
Fold Change: Niacinamine* [6, 11]: 0.74 fold
Fold Change: O-phosphorylethanolamine; 2-aminoethyl dihydrogen phosphate* [6, 11]: 1.35 fold
Fold Change: Ribitol* [6, 11]: 0.66 fold
Fold Change: Scyllo-Inositol* [6, 11]: 1.23 fold
Fold Change: meso-Erythritol; Erythritol* [6, 11]: 0.69 fold
presence of dihydroorotic acid (DHO) ([6]; ML416 vs mock-treated): found only in ML416-treated groups
presence of orotic acid ([6]; ML416 vs mock-treated): found only in ML416-treated groups
IFIH1 expression [7]: repressed
IFIT1 gene upregulation [7]: more than 10 fold
IFNB1 expression [7]: repressed
IRF7 gene upregulation [7]: more than 10 fold
MYD88 expression [7]: did not show any changes
OAS1 expression [7]: did not show any changes
OAS2 gene upregulation [7]: more than 10 fold
RIG-I gene upregulation [7]: more than 10 fold
IFN α/β in cell culture supernatant [8]: no measurable quantity of IFNs was detected
IFN α/β in cell culture supernatant ([9]; HEK 293T supernatant on HEK-Blue IFN-α/β cells): no measurable quantity of IFNs was detected
SEAP activity ([9]; HEK-Blue IFN-α/β cells treated directly, FIG. 6): did not induce SEAP activity
Log reduction in progeny virus titers (alphaviruses): greater than 4 Log
CC50 (Vero 76 cells): > 50000 nM
Selective Index 50 (SI50) (Vero 76 cells): 106.9
concentration up to which no apparent cytotoxicity (Vero 76 cells; African green monkey): up to 12.5 μM
cytotoxicity (Vero 76 cells; African green monkey): > 40 µM
cytotoxicity in Vero 76 cells (Vero 76 cells; African green monkey): > 50 µM
CC50 (in vitro): > 50 µM
